These are literature values, as cited in patent US20250115648A1 (priority 2013, published 2025).

Values joined by “and” are separate entries in the source; they are usually repeats but may differ in a detail not shown here. Identical values can stand only once.

For this data set the following is noted: cited from earlier work; for Peak Abs.: peak absorbance wavelength of exemplary fluorescent reporter molecule; for Peak Em.: peak emission wavelength of exemplary fluorescent reporter molecule.

In the case of `O=C([O-])c1ccc(C2=c3cc4c5c(c3Oc3c2cc2c6c3CCCN6CCC2)CCC[N+]=5CCC4)c(C(=O)O)c1` [Compound 5-ROX], the “Peak Abs.” value is recorded as 577 nanometers and the “Peak Em.” value was 603 nanometers.

Regarding `O=c1ccc2nc3ccc(O)c([As]4SCCS4)c3oc-2c1[As]1SCCS1` [ReAsH (TC-ReAsH)], the “Peak Abs.” value was 593 nanometers and the “Peak Em.” value is recorded as 608 nanometers. Regarding `CN(C)c1ccc2c(-c3ccc(CCl)cc3)c3ccc(=[N+](C)C)cc-3oc2c1.[Cl-]`, the “Peak Abs.” value is 551 nanometers and the “Peak Em.” value is 576 nanometers. Consider `CN(C)CCNc1ccc(O)c2c1C(=O)c1c(O)ccc(NCCN(C)C)c1C2=O` [DRAQ5], for which the “Peak Abs.” value was 650 nanometers and the “Peak Em.” value is 680 nanometers. Consider `CC1=CC(C)(C)N(C)c2cc3[o+]c4cc5c(cc4c(-c4cc(NC(=O)c6ccc(CCl)cc6)ccc4C(=O)[O-])c3cc21)C(C)=CC(C)(C)N5C.CC1=CC(C)(C)N(C)c2cc3[o+]c4cc5c(cc4c(-c4ccc(NC(=O)c6ccc(CCl)cc6)cc4C(=O)[O-])c3cc21)C(C)=CC(C)(C)N5C` [CellTracker Red CMTPX], for which the “Peak Abs.” value was 584 nanometers and the “Peak Em.” value is reported as 613 nanometers. With `O=C([O-])CN(CC(=O)[O-])c1ccccc1OCCOc1cc(NC(=O)c2ccc3c(c2)C(=O)OC32c3cc(Cl)c([O-])cc3Oc3cc([O-])c(Cl)cc32)ccc1N(CC(=O)[O-])CC(=O)[O-].[K+].[K+].[K+].[K+].[K+].[K+]` [Calcium Green-1], the “Peak Abs.” value is 506 nanometers and the “Peak Em.” value was 540 nanometers. Regarding `CCN1C(=CC=CC=CC=CC2=[N+](CCCCCC(=O)O)c3ccc(S(=O)(=O)O)cc3C2(C)C)C(C)(C)c2cc(S(=O)(=O)[O-])ccc21` [Cy7], the “Peak Abs.” value is 745 nanometers and the “Peak Em.” value is 766 nanometers. For the compound `CC(=O)Oc1ccc2c(c1)Oc1cc(OC(C)=O)ccc1C21OC(=O)c2cc(CCl)ccc21` [CellTracker Green], the “Peak Abs.” value is recorded as 490 nanometers and the “Peak Em.” value was 540 nanometers. Consider `O=C1OC2(c3ccc(O)cc3Oc3cc(O)ccc32)c2ccc(N=C=S)cc21` [FITC (Fluorescein), fluorescein isothiocyanine], for which the “Peak Abs.” value is recorded as 492 nanometers and the “Peak Em.” value was 520 nanometers. As to `O=C(COc1ccc(C2=[N+]3C(=Cc4ccc(-c5cccs5)n4[B-]3(F)F)C=C2)cc1)NCCCCCC(=O)ON1C(=O)CCC1=O` [Bodipy TR-X], the “Peak Abs.” value is listed as 588 nanometers and the “Peak Em.” value is listed as 621 nanometers.

As for Cascade Blue, the “Peak Abs.” value was 400 nanometers and 377 nanometers; the “Peak Em.” value is given as 420 nanometers.

On to SYTO 9, for which the “Peak Abs.” value is listed as 482 nanometers and the “Peak Em.” value is 500 nanometers. In the case of `CCCCCCCCCCCCCCCCCCN1/C(=C/C=C/C2=[N+](CCCCCCCCCCCCCCCCCC)c3ccccc3C2(C)C)C(C)(C)c2ccccc21.[O-][Cl+3]([O-])([O-])[O-]` [DiI (CellTrackerDiI)], the “Peak Abs.” value is listed as 551 nanometers and the “Peak Em.” value is recorded as 568 nanometers. For `CC1(C)C2=C(Cl)C(=O)C(Cl)=CC2=Nc2ccc(O)cc21` [DDAO], the “Peak Abs.” value is listed as 648 nanometers and the “Peak Em.” value is on record as 658 nanometers. For the compound `CN1/C(=C/c2cc[n+](CCC[N+](C)(C)CCC[N+](C)(C)CCC[n+]3ccc(/C=C4\Sc5ccccc5N4C)c4ccccc43)c3ccccc23)Sc2ccccc21.[I-].[I-].[I-].[I-]` [TOTO-1], the “Peak Abs.” value is recorded as 513 nanometers and the “Peak Em.” value is given as 531 nanometers.

As for `CCN1C(=CC=CC2=[N+](CCCCCC(=O)O)c3ccc(S(=O)(=O)O)cc3C2(C)C)C(C)(C)c2cc(S(=O)(=O)[O-])ccc21` [Cy3], the “Peak Abs.” value was 552 nanometers and the “Peak Em.” value was 570 nanometers. For the compound `Cc1c(CC(=O)O)c(=O)oc2c(F)c(O)c(F)cc12` [Marina Blue], the “Peak Abs.” value was 365 nanometers and the “Peak Em.” value was 460 nanometers. Turning to Cy5.5, the “Peak Abs.” value is 672 nanometers and 678 nanometers; the “Peak Em.” value is 690 nanometers and 696 nanometers. Consider Fluo-4, for which the “Peak Abs.” value is recorded as 494 nanometers and the “Peak Em.” value is recorded as 540 nanometers. For `CC(=O)Oc1cc2c(cc1Cl)C(c1ccccc1C(=O)O)c1cc(Cl)c(OC(C)=O)cc1O2` [H2DCFDA (H2-DCF, DCFR)], the “Peak Abs.” value is listed as 504 nanometers and the “Peak Em.” value is 540 nanometers. Turning to `CN1/C(=C/C=C/c2cc[n+](CCC[N+](C)(C)CCC[N+](C)(C)CCC[n+]3ccc(/C=C/C=C4/Sc5ccccc5N4C)cc3)cc2)Sc2ccccc21.[I-].[I-].[I-].[I-]` [BOBO-3], the “Peak Abs.” value was 570 nanometers and 571 nanometers; the “Peak Em.” value is 602 nanometers and 606 nanometers. For `Cl.Cl.N=C(N)c1ccc2oc(/C=C/c3cc4cc(C(=N)N)ccc4o3)cc2c1` [True Blue], the “Peak Abs.” value is recorded as 365 nanometers and the “Peak Em.” value is given as 425 nanometers. Take `Nc1ccc([N+](=O)[O-])c2nonc12` [NBD Amine]: the “Peak Abs.” value was 450 nanometers and the “Peak Em.” value was 530 nanometers. As for `CN1C(=Cc2cc[n+](CCC[N+](C)(C)CCC[N+](C)(C)CCC[n+]3ccc(C=C4Sc5ccccc5N4C)cc3)cc2)Sc2ccccc21.[I-].[I-].[I-].[I-]` [BOBO-1], the “Peak Abs.” value is listed as 570 nanometers and the “Peak Em.” value was 602 nanometers. Turning to `CCCCCCCCCCCC[N+](C)(CCCS(=O)(=O)[O-])Cc1ccc2oc(-c3ccc(N(CC)CC)cc3)c(O)c(=O)c2c1` (centres unmarked) [Compound F2N12S], the “Peak Abs.” value is 405 nanometers. With `Cc1c(CC(=O)O)c(=O)oc2cc(N)ccc12` [AMCA, aminomethylcoumarin], the “Peak Abs.” value was 345 nanometers and the “Peak Em.” value is given as 425 nanometers. Turning to `CCN(CC)c1ccc(/C=C/C=C/c2cc[n+](CC(O)C[N+](C)(C)CCO)cc2)cc1.[Br-].[Br-]` (centres unmarked) [RH 795], the “Peak Abs.” value is reported as 530 nanometers and the “Peak Em.” value is reported as 712 nanometers. “CFP: Exemplary fluorescent reporter molecules”: the “Peak Abs.” value was 434 nanometers.

Regarding `O=S(=O)(O)c1cc(Nc2nc(Nc3ccccc3)nc(N(CCO)CCO)n2)ccc1/C=C/c1ccc(Nc2nc(Nc3ccccc3)nc(N(CCO)CCO)n2)cc1S(=O)(=O)O` [Calcofluor White], the “Peak Abs.” value is given as 350 nanometers and the “Peak Em.” value is on record as 440 nanometers. `CN(C)CCNC(=O)CCc1ccc2n1[B-](F)(F)[N+]1=C(c3ccc[nH]3)C=CC1=C2` [LysoTracker Red]: the “Peak Abs.” value was 573 nanometers and the “Peak Em.” value is on record as 592 nanometers.

Take `CCCCCCCCCCCCCCCCCCN1/C(=C\C=C\c2oc3ccccc3[n+]2CCCCCCCCCCCCCCCCCC)Oc2ccccc21.[O-][Cl+3]([O-])([O-])[O-]` [DiO (Vybrant DiO)]: the “Peak Abs.” value is 489 nanometers and the “Peak Em.” value is on record as 506 nanometers. Take `CCCCCCCCCCCCCCCCCCN1/C(=C/C=C/C=C/C2=[N+](CCCCCCCCCCCCCCCCCC)c3ccccc3C2(C)C)C(C)(C)c2ccccc21.[O-][Cl+3]([O-])([O-])[O-]` [DiD (Vybrant DiD)]: the “Peak Abs.” value is recorded as 645 nanometers and the “Peak Em.” value was 670 nanometers. Regarding `Nc1ccc2cc3ccc(N)cc3[n+](CCCC(=O)O)c2c1.[O-][Cl+3]([O-])([O-])[O-]` [ATTO 465], the “Peak Abs.” value was 453 nanometers and the “Peak Em.” value is given as 507 nanometers. With Methoxycoumarin, the “Peak Abs.” value is reported as 360 nanometers and the “Peak Em.” value is given as 410 nanometers. On to `CN(C)c1ccc(-c2cnc(-c3ccc(S(=O)(=O)NCCNC(=O)c4c(F)c(F)c(F)c(F)c4F)cc3)o2)cc1` [ER-Tracker Blue-White DPX], for which the “Peak Abs.” value is given as 371 nanometers and the “Peak Em.” value is 554 nanometers. Take `C[N+]1=C(/C=C/C=C/C=C2\N(Cc3ccc(CCl)cc3)c3ccccc3C2(C)C)C(C)(C)c2ccccc21.[Cl-]` [MitoTracker Deep Red FM]: the “Peak Abs.” value was 641 nanometers and the “Peak Em.” value is 661 nanometers.

Turning to carboxytetramethyl-rhodamine [TAMRA], the “Peak Abs.” value is 565 nanometers and the “Peak Em.” value was 580 nanometers. In the case of `ClCc1ccc(C2=c3cc4c5c(c3Oc3c2cc2c6c3CCCN6CCC2)CCC[N+]=5CCC4)cc1.[Cl-]` [MitoTracker Red CMXRos], the “Peak Abs.” value is 578 nanometers and the “Peak Em.” value was 597 nanometers. With `O=C(O)CSc1c(F)c(F)c(C(=O)O)c(-c2c3cc(F)c(=O)cc-3oc3cc(O)c(F)cc23)c1F` [Oregon Green 514], the “Peak Abs.” value was 512 nanometers and the “Peak Em.” value is 532 nanometers. As for `COc1cc2cc(-c3ccc(C(=O)O)cc3C(=O)O)oc2cc1N1CCOCCOCCN(c2cc3oc(-c4ccc(C(=O)O)cc4C(=O)O)cc3cc2OC)CCOCCOCC1` [PBFI], the “Peak Abs.” value is on record as 360 nanometers and the “Peak Em.” value is 420 nanometers. For the compound Allophycocyanin [APC (Allophycocyanin)], the “Peak Abs.” value is on record as 651 nanometers and the “Peak Em.” value was 660 nanometers. Consider `CC1=CC(C)=[N+]2C1=Cc1c(C)cc(C)n1[B-]2(F)F` [BODIPY 505/515], for which the “Peak Abs.” value is 502 nanometers and the “Peak Em.” value is 540 nanometers. As for `CCCCCCCCCCCCCCCCCCN1/C(=C\C=C\c2oc3ccccc3[n+]2CCCCCCCCCCCCCCCCCC)Oc2ccccc21.[O-][Cl+3]([O-])([O-])[O-]` [DiO], the “Peak Abs.” value is 484 nanometers and the “Peak Em.” value is recorded as 501 nanometers. `CC1(C)C(=CC=C2CCCC(C=CC3=[N+](CCCCCC(=O)[O-])c4ccc(S(=O)(=O)[O-])cc4C3(C)C)=C2Oc2ccc(S(=O)(=O)[O-])cc2)N(CCCCS(=O)(=O)[O-])c2ccc(S(=O)(=O)[O-])cc21.[Na+].[Na+].[Na+].[Na+]` [IRDye 800CW]: the “Peak Abs.” value is 774 nanometers and the “Peak Em.” value is reported as 789 nanometers.
